Assays:
goblet cell hyperplasia = experiment: Lung histopathology (PAS), goblet cell hyperplasia score; type: in vivo, BALB/c mouse; details: eIN+mIT+eIN group (CMP days 1 to 22)
From the text: (§1) FIG. 4 illustrates experimental design. All groups except control group were immunized with mite crude extract allergen on days 1 and 8, then mite crude extract allergen intratracheally on day 15 in all mite treated group, BALB/c mouse were divided into six groups (1) control group (PBS), (2) mites delivered intratracheally (mIT, mite on day 15) alone, (3) CMP intranasal (eIN, CMP on days 1 to 22) alone, (4) preventive-treatment group (eIN+mIT, CMP on days 1 to 14, mite on day 15) (5) therapy-treatment group (mIT+eIN, mite on day 15, CMP on days 15 to 22), and (6) preventive- and therapeutic-treatment group (eIN+mIT+eIN, CMP on days 1 to 22, mite on day 15).
(§2) FIG. 6A-6B illustrates inhibitory effect of CMP on influx of inflammatory cells. […] (A) Scores for peri-bronchiolar, alveolar inflammation and (B) PAS were determined based on the histological sections. Each result was expressed as the mean±S.D., n=4. ***, P<0.001. […]
(§3) The formalin-fixed lung sections stained with hematoxylin and eosin (H&E) were assigned a unit value for alveolar, peri-bronchiolar, and total inflammation by computing the means of three independent scores for three randomly selected fields. […] For evaluating the hyperplasia goblet cells, medium-sized airways were assessed in sections stained with periodic acid-Schiff (PAS) stain. Two reviewers independently and randomly scored 10 fields of each slide. […]

[1] = test system: mite-induced airway inflammation; experiment: Lung histopathology (H&E), peri-bronchiolar and alveolar inflammation scores; type: in vivo, BALB/c mouse
From the text: as §1, §2, §3

With NYRWRCKNQN (CMP) as the sequence, how does the “score of goblet cell hyperplasia compared with mIT group” value (goblet cell hyperplasia) read?
Its value is “lower score”.

What about the “effect on peribronchiolar, alveolar inflammation and goblet cells hyperplasia” value ([1]; eIN+mIT+eIN compared with eIN+mIT and mIT+eIN group) of the same sequence?
The value was “more potently suppressive effect”.

And the “peri-bronchiolar and alveolar scores compared with mIT group” value ([1]; eIN+mIT+eIN group (CMP days 1 to 22))?
Its value is “significantly lower”.

Source: patent publication US9315544B2, “Method of treating eosinophilia by administering an immunomodulating peptide” (National Tsing Hua University, priority 2012, dated 2016)
